Results: US20040142821A1, “Pesticide composition comprising malononitrile compounds” (priority 2001, published 2004)

Tests used:
[1] = test system: Cullex pipiens pallens; experiment: whole plant or invertebrate; conditions: 24 h
Procedure: In 100 ml of ion-exchanged water, the test liquid had been prepared as described above, was added dropwise in an amount of 0.7 ml (the concentration of active ingredient was 3.5 ppm). Twenty final-instar larvae of Cullex pipiens pallens (common mosquito) were set free in the solution. After 1 days, their survival was examined to determine the mortality.

[2] = test system: Musca domestics; experiment: Pesticidal test against Musca domestics, treated filter paper with sucrose bait (Test Example 5); type: in vivo; conditions: 500 ppm test liquid (Formulation Example 5), 0.7 ml on filter paper, ten female adults, after 24 hours
Procedure: Ten female adults of Musca domestics (house fly) were set free in the polyethylene cup, which was then kept covered. After 24 hours, their survival was examined to determine the mortality.

| Structure (SMILES) | mortality at 3.5 µg/mL [1] [%] | mortality at 500 ppm [2] [%] |
| --- | --- | --- |
| C=CCCC(C#N)(C#N)Cc1ccc(C#N)cc1 [Compound 6, 2-(3-butenyl)-2-(4-cyanobenzyl)malononitrile] | 100 |  |
| C=CCCCC(C#N)(C#N)Cc1ccc(C#N)cc1 [Compound 7, 2-(4-cyanobenzyl)-2-(4-pentenyl)malononitrile] | 100 |  |
| C=CCC(C#N)(C#N)Cc1ccc(Br)cc1 [Compound 13, 2-allyl-2-(4-bromobenzyl)malononitrile] | 100 |  |
| CC(C)=CCC(C#N)(C#N)Cc1ccc(Cl)cc1 [Compound 25, 2-(4-chlorobenzyl)-2-(3-methyl-2-butenyl)malononitrile] | 100 |  |
| CC(C)=CCC(C#N)(C#N)Cc1ccc(OC(F)(F)F)cc1 [Compound 27, 2-(3-methyl-2-butenyl)-2-(4-(trifluoromethoxy)benzyl)malononitrile] | 100 |  |
| C=CCC(C#N)(C#N)Cc1cccc(OC)c1 [Compound 28, 2-allyl-2-(3-methoxybenzyl)malononitrile] | 100 |  |
| C=CCC(C#N)(C#N)Cc1ccc(OC)cc1 [Compound 29, 2-allyl-2-(4-methoxybenzyl)malononitrile] | 100 |  |
| C#CCC(C#N)(C#N)C(C=C)c1ccc(OC(F)(F)F)cc1 (stereo not drawn) [Compound 34, 2-(2-propynyl)-2-(1-(4-(trifluoromethoxy)phenyl)-2-propenyl)malononitrile] | 100 | 100 |
| C=CCCC(C#N)(C#N)Cc1ccc(OC(F)(F)Br)cc1 [Compound 35, 2-(3-butenyl)-2-(4-(bromodifluoromethoxy)benzyl)malononitrile] | 100 | 100 |
| C=CCCC(C#N)(C#N)Cc1ccc(OCC=C)cc1 [Compound 38, 2-(3-butenyl)-2-(4-(2-propenyloxy)benzyl)malononitrile] | 100 |  |
| C=CCC(C#N)(C#N)Cc1ccc(OCC)cc1 [Compound 44, 2-allyl-2-(4-ethoxybenzyl)malononitrile] | 100 |  |
| CC(C)CCC(C#N)(C#N)Cc1ccc(OC(F)(F)F)cc1 [Compound 45, 2-(3-methylbutyl)-2-(4-(trifluoromethoxy)benzyl)malononitrile] | 100 | 100 |
| C=CCC(C#N)(C#N)C(C)(C)c1cccc(Cl)c1 [Compound 48, 2-allyl-2-(1-(3-chlorophenyl)-1-methylethyl)malononitrile] | 100 |  |
| C=CCC(C#N)(C#N)Cc1c(Cl)cccc1Cl [Compound 54, 2-allyl-2-(2,6-dichlorobenzyl)malononitrile] | 100 |  |
| C=CCC(C#N)(C#N)Cc1ccc(S(C)(=O)=O)cc1 [Compound 61, 2-allyl-2-(4-(methylsulfonyl)benzyl)malononitrile] | 100 |  |
| C=CCC(C#N)(C#N)Cc1ccc(C(F)(F)F)cc1[N+](=O)[O-] [Compound 63, 2-allyl-2-(2-nitro-4-(trifluoromethyl)benzyl)malononitrile] | 100 |  |
| C=CCCC(C#N)(C#N)Cc1c(Cl)cc(C(F)(F)F)cc1Cl [Compound 65, 2-(3-butenyl)-2-(2,6-dichloro-4-(trifluoromethyl)benzyl)malononitrile] | 100 | 100 |
| C=CCCC(C#N)(C#N)Cc1ccc(C(F)(F)F)cc1[N+](=O)[O-] [Compound 67, 2-(3-butenyl)-2-(2-nitro-4-(trifluoromethyl)benzyl)malononitrile] | 100 | 100 |
| C=CCC(C#N)(C#N)Cc1ccc(SC)cc1 [Compound 70, 2-allyl-2-(4-(methylthio)benzyl)malononitrile] | 100 |  |

| Structure (SMILES) | mortality at 3.5 µg/mL [1] [%] | mortality at 500 ppm [2] [%] |
| --- | --- | --- |
| CCCC(C#N)(C#N)Cc1ccc(C(F)(F)F)cc1 [Compound 71, 2-propyl-2-(4-(trifluoromethyl)benzyl)malononitrile] | 100 | 100 |
| CCC(C#N)(C#N)Cc1ccc(C(F)(F)F)cc1 [Compound 75, 2-ethyl-2-(4-(trifluoromethyl)benzyl)malononitrile] | 100 | 100 |
| C=CCCC(C#N)(C#N)Cc1ccc(OC(C)=O)cc1 [Compound 78, 2-(3-butenyl)-2-(4-(acetyloxy)benzyl)malononitrile] | 100 |  |
| C=CCCC(C#N)(C#N)Cc1ccc(OC(F)(F)C(F)F)cc1 [Compound 80, 2-(3-butenyl)-2-(4-(1,1,2,2-tetrafluoroethoxy)benzyl)malononitrile] | 100 |  |
| C=CCCC(C#N)(C#N)Cc1ccc(OCC(F)(F)F)cc1 [Compound 81, 2-(3-butenyl)-2-(4-(2,2,2-trifluoroethoxy)benzyl)malononitrile] | 100 |  |
| C=CCC(C#N)(C#N)C(OC)c1ccc(C#N)cc1 (stereo not drawn) [Compound 83, 2-allyl-2-(4-cyano-α-methoxybenzyl)malononitrile] | 100 |  |
| C=CCCC(C#N)(C#N)Cc1cccc(OC(F)(F)F)c1 [Compound 90, 2-(3-butenyl)-2-(3-(trifluoromethoxy)benzyl)malononitrile] |  | 100 |
| C=CCC(C#N)(C#N)C(C#N)c1ccc(OC)cc1 (stereo not drawn) [Compound 91, 2-allyl-2-(4-methoxy-α-cyanobenzyl)malononitrile] | 100 |  |
| C=CCC(C#N)(C#N)Cc1ccc(C(C)=O)cc1 [Compound 97, 2-(4-acetylbenzyl)-2-allylmalononitrile] | 100 |  |
| C=CCCC(C#N)(C#N)Cc1ccc(OCC)cc1 [Compound 98, 2-(3-butenyl)-2-(4-ethoxybenzyl)malononitrile] | 100 |  |
| C=CCCC(C#N)(C#N)Cc1ccc(OCCC)cc1 [Compound 99, 2-(3-butenyl)-2-(4-propoxybenzyl)malononitrile] | 100 |  |
| C=CCCC(C#N)(C#N)Cc1ccc(OC(C)C)cc1 [Compound 100, 2-(3-butenyl)-2-(4-isopropoxybenzyl)malononitrile] | 100 |  |
| C=CCC(C#N)(C#N)C(c1ccc(OC(F)(F)F)cc1)C(C)(C)C (stereo not drawn) [Compound 103, 2-allyl-2-(1-(4-(trifluoromethoxy)phenyl)-2,2-dimethylpropyl)malononitrile] | 100 |  |
| CCCCCC(C#N)(C#N)Cc1ccc(C(F)(F)F)cc1 [Compound 104, 2-pentyl-2-(4-(trifluoromethyl)benzyl)malononitrile] | 100 |  |
| CC(C)=CCC(C#N)(C#N)Cc1ccc(C(F)(F)F)cc1 [Compound 106, 2-(3-methyl-2-butenyl)-2-(4-(trifluoromethyl)benzyl)malononitrile] | 100 |  |
| CCCC(C)C(C#N)(C#N)Cc1ccc(C(F)(F)F)cc1 (stereo not drawn) [Compound 112, 2-(1-methylbutyl)-2-(4-(trifluoromethyl)benzyl)malononitrile] | 100 |  |
| CCCCC(C)C(C#N)(C#N)Cc1ccc(C(F)(F)F)cc1 (stereo not drawn) [Compound 113, 2-(1-methylpentyl)-2-(4-(trifluoromethyl)benzyl)malononitrile] | 100 |  |
| C=CCC(C#N)(C#N)Cc1ccc(F)c(Oc2ccccc2)c1 [Compound 116, 2-allyl-2-(4-fluoro-3-phenoxybenzyl)malononitrile] | 100 |  |
| C=CCC(C#N)(C#N)Cc1cccc(Oc2ccccc2)c1 [Compound 118, 2-allyl-2-(3-phenoxybenzyl)malononitrile] | 100 |  |
